pIC50: −log10 of the molar value.
System: 168753-222-R-J1-PDC complex spheroid viability
Experiment: Anticancer human tumor 168753-222-R-J1-PDC patient-derived bladder carcinoma cell line growth inhibition [CLK]
Details: for pIC50: curve of first compound; for viability, T/C: stronger effect = lower value; active = viability on the fitted dose curve at most 10% of control; inactive = the rest
Excerpt: A high-throughput screen of multi-cell type tumor spheroids was designed to identify active combinations of […] and targeted small molecules. Complex spheroids include a stromal component modeled by human endothelial cells (HUVEC) and fibroblasts modeled by human mesenchymal stem cells (MSCs). The concentration ranges selected for each drug and investigational agent were based upon clinically achievable concentrations if the clinical Cmax of the agent was known.
Compounds. The drugs and investigational agents: cirtuvivint (SM08502; NSC835563), CC-671 (NSC850746), vemurafenib (NSC761431), tapotoclax (NSC804041), sotorasib (NSC818433), adagrasib (NSC831453), MRTX-1133 (NSC836407), BAY2416964 (NSC825713), copanlisib (NSC816437), inavolisib (NSC800729), abemaciclib (NSC768073), osimertinib (NSC779217), entinostat (NSC756642), eltanexor (KPT-8602, NSC794443), venetoclax (NSC766270), ceralasertib (NSC777638), bortezomib (NSC756655), olaparib (NSC753686), talazoparib (NSC767125), alisertib (NSC759677), peposertib (NSC802822), gemcitabine (NSC613327), 5-fluorouracil (NSC19893), SN-38 (NSC673596), oxaliplatin (NSC266046), paclitaxel (NSC125973), and doxorubicin (NSC123127), were obtained from the National Cancer Institute (NCI) Developmental Therapeutics Program Chemical Repository. The FDA-approved anticancer drug set is available from the Developmental Therapeutics Program at https://dtp.cancer.gov/organization/dscb/obtaining/available plates.htm. […] The stock solutions were prepared in dimethyl sulfoxide (DMSO, Sigma-Aldrich, St. Louis, MO, cat. D2650), except for the platinum complexes which were prepared in saline (Quality Biological, Gaithersburg, MD, cat. 114-055-101), at 800-fold the tested concentration and stored at -70 degrees C prior to their use. All drugs and investigational agents were tested over a range starting from a high concentration at or near the clinical Cmax and decreasing in half-log increments. If the clinical Cmax for an agent had not been determined, the highest concentration tested was 10 microM.
Cell Culture. All cells were maintained in an incubator at 37 degrees C and 5% CO2 with 95% humidity. The PDC lines were cultured according to standard operating procedures established by the NCI PDMR. Briefly, all PDCs were thawed and cultured in Matrigel-coated flasks prepared with a working solution of 1X Ham's F-12 nutrient mix, without supplementation (Invitrogen, Waltham, MA, cat. 11765054), 100 U/mL penicillin-streptomycin (Invitrogen, cat. 15140122), and 2.5% Matrigel (Corning Inc., Corning, NY, cat. 354248) for the first three passages. The 947758-054-R-J2-PDC line was cultured in 6B/Colon 1A media, which includes advanced DMEM/F-12 (Thermo Fisher Scientific, cat. 12634028), 10 mM HEPES (Thermo Fisher Scientific, cat. 15630080), 1X GlutaMAX supplement (Thermo Fisher Scientific, cat. 35050061), 0.1 mg/mL primocin (InvivoGen, cat. ant-pm-2), 10% defined fetal bovine serum, heat inactivated (HyClone Laboratories Inc., cat. SH30070.03HI), 1.25 mM N-Acetyl-L-cysteine (Sigma-Aldrich, cat. A9165), 10 mM nicotinamide (Sigma-Aldrich, cat. N0636), 1X B-27 supplement (Thermo Fisher Scientific, cat. 17504044), 1X N-2 supplement (Thermo Fisher Scientific, cat. 17502048), and 10 microM Y-27632 dihydrochloride (Tocris Bioscience, cat. 1254). The 876862-298-R-J1-PDC was cultured in 6E media, which includes all 6B/Colon 1A media components plus 50% L-WRN conditioned media (ATCC, cat. CRL-3276), 50 ng/mL recombinant human EGF recombinant protein (hEGF; Thermo Fisher Scientific, cat. PHG0311), 10 ng/mL recombinant human fibroblast growth factor 10 (hGFG-10; PeproTech, cat. 100-26), 1 ng/mL recombinant human fibroblast growth factor 2 (hFGF-2; PeproTech, cat. 100-18B), and 1 µM prostaglandin E2 (PGE2; Tocris, cat. 2296). The 227483-062-R1-J1-PDC line was cultured in Panc media, containing all 6E components except hFGF-2, with the addition of 500 nM SB-431542 (Selleckchem, cat. S1067) and 10 nM gastrin (Tocris, cat. 3006). […]
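Note: viability measured after seven days of drug exposure.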
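Throughout, for viability, T/C: luminescence signal used as surrogate for viable cell amount; 100% = DMSO vehicle control wells.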

CCN1CCN(Cc2ccc(Nc3ncc(F)c(-c4cc(F)c5nc(C)n(C(C)C)c5c4)n3)nc2)CC1 + CN1CCN(c2cc(C(=O)Nc3cc4cc(-c5cnn(C)c5)ccc4cn3)ccn2)CC1
8.15: pIC50 (second compound 0.1 µM)
active: viability, T/C (second compound 0.316 µM, first compound 0.0316 µM) 8.81% | viability, T/C (second compound 0.316 µM, first compound 0.1 µM) 8.47% | viability, T/C (second compound 0.316 µM, first compound 0.316 µM) 10.7% | viability, T/C (second compound 0.316 µM, first compound 1 µM) 12.1% | viability, T/C (second compound 1 µM, first compound 0.00316 µM) 0.18% | viability, T/C (second compound 1 µM, first compound 0.01 µM) 0.21% | viability, T/C (second compound 1 µM, first compound 0.0316 µM) 1.13% | viability, T/C (second compound 1 µM, first compound 0.1 µM) 0.13% | viability, T/C (second compound 1 µM, first compound 0.316 µM) 1.24% | viability, T/C (second compound 1 µM, first compound 1 µM) 0.34% | viability, T/C (second compound 3.16 µM, first compound 0.00316 µM) 0.09% | viability, T/C (second compound 3.16 µM, first compound 0.01 µM) 0.13% | viability, T/C (second compound 3.16 µM, first compound 0.0316 µM) 0.44% | viability, T/C (second compound 3.16 µM, first compound 0.1 µM) 0.08% | viability, T/C (second compound 3.16 µM, first compound 0.316 µM) 1.18% | viability, T/C (second compound 3.16 µM, first compound 1 µM) 0.99% | viability, T/C (second compound 10 µM, first compound 0.00316 µM) 0.11% | viability, T/C (second compound 10 µM, first compound 0.01 µM) 0.29% | viability, T/C (second compound 10 µM, first compound 0.0316 µM) 0.24% | viability, T/C (second compound 10 µM, first compound 0.1 µM) 0.13% | viability, T/C (second compound 10 µM, first compound 0.316 µM) 1.1% | viability, T/C (second compound 10 µM, first compound 1 µM) 1.36%
> 8.50: pIC50 (second compound 0.316 µM) | pIC50 (second compound 1 µM) | pIC50 (second compound 3.16 µM) | pIC50 (second compound 10 µM)
inactive: viability, T/C (second compound 0.0316 µM, first compound 0.00316 µM) 76.3% | viability, T/C (second compound 0.0316 µM, first compound 0.01 µM) 44.8% | viability, T/C (second compound 0.0316 µM, first compound 0.0316 µM) 29.6% | viability, T/C (second compound 0.0316 µM, first compound 0.1 µM) 36.7% | viability, T/C (second compound 0.0316 µM, first compound 0.316 µM) 22.4% | viability, T/C (second compound 0.0316 µM, first compound 1 µM) 26.2% | viability, T/C (second compound 0.1 µM, first compound 0.00316 µM) 76.5% | viability, T/C (second compound 0.1 µM, first compound 0.01 µM) 38.7% | viability, T/C (second compound 0.1 µM, first compound 0.0316 µM) 20.5% | viability, T/C (second compound 0.1 µM, first compound 0.1 µM) 19.9% | viability, T/C (second compound 0.1 µM, first compound 0.316 µM) 17.4% | viability, T/C (second compound 0.1 µM, first compound 1 µM) 12.6% | viability, T/C (second compound 0.316 µM, first compound 0.00316 µM) 11.4% | viability, T/C (second compound 0.316 µM, first compound 0.01 µM) 9.45%
8.08: pIC50 (second compound 0.0316 µM)
